Measured values from publication PMC9030254, “Target Hopping from Protein Kinases to PXR: Identification of Small-Molecule Protein Kinase Inhibitors as Selective Modulators of Pregnane X Receptor from TüKIC Library” (Cells, 2022).

Assays:
Assay in all cases: Kinase profiling
Type in all cases: biochemical
[1] = biological target: T1, ACVR2A (Homo sapiens, UniProt P27037)
T1 construct: purchased ProQinase (Freiburg, Germany)
Protocol: (§1) The analysis was performed by ProQinase (Freiburg, Germany).

[2] = biological target: T2, DCAMKL2 (Homo sapiens, UniProt Q8N568)
T2 construct: purchased ProQinase (Freiburg, Germany)
T2 sequence (Q8N568 1-766): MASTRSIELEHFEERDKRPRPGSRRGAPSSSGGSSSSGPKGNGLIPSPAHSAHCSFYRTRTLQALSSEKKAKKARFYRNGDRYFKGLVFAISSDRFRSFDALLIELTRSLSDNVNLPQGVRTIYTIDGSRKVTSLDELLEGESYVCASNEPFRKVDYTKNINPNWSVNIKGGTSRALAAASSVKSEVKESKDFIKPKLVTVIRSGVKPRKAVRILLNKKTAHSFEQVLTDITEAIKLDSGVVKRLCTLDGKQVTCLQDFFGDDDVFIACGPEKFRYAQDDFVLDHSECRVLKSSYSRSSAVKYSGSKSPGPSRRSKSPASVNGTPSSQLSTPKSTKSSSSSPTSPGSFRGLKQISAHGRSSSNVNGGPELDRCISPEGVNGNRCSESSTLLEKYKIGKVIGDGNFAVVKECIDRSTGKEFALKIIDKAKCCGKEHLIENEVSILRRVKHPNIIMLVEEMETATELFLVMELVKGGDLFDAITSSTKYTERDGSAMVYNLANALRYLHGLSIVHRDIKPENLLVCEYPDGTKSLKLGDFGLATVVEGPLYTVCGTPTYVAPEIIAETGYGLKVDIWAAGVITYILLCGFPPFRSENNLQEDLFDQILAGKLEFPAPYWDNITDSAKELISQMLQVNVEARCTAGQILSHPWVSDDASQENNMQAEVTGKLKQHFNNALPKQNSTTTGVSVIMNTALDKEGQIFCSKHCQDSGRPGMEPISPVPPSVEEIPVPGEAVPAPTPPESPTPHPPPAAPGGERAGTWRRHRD
Protocol: as §1

[3] = biological target: T3, GRK3 (Homo sapiens, UniProt P35626)
T3 construct: purchased ProQinase (Freiburg, Germany)
T3 sequence (P35626 1-688): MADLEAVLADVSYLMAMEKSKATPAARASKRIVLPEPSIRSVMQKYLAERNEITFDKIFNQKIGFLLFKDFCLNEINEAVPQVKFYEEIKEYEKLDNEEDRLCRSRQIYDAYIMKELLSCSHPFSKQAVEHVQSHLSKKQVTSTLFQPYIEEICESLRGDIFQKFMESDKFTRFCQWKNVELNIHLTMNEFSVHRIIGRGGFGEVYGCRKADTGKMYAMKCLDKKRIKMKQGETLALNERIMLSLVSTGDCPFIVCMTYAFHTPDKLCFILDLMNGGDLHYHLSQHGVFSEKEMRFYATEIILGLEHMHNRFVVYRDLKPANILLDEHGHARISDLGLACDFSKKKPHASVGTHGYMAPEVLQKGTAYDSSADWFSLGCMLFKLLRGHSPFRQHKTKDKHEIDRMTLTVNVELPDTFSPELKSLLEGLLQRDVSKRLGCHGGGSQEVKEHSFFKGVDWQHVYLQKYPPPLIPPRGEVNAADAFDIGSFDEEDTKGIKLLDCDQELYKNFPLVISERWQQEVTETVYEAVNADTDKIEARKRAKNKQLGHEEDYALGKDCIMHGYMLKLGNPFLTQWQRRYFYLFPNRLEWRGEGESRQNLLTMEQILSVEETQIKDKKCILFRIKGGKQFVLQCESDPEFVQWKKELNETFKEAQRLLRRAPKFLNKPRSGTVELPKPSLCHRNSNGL
Protocol: as §1

[4] = biological target: T4, MEKK3 (Homo sapiens, UniProt Q99759)
T4 construct: purchased ProQinase (Freiburg, Germany)
T4 sequence (Q99759 1-626): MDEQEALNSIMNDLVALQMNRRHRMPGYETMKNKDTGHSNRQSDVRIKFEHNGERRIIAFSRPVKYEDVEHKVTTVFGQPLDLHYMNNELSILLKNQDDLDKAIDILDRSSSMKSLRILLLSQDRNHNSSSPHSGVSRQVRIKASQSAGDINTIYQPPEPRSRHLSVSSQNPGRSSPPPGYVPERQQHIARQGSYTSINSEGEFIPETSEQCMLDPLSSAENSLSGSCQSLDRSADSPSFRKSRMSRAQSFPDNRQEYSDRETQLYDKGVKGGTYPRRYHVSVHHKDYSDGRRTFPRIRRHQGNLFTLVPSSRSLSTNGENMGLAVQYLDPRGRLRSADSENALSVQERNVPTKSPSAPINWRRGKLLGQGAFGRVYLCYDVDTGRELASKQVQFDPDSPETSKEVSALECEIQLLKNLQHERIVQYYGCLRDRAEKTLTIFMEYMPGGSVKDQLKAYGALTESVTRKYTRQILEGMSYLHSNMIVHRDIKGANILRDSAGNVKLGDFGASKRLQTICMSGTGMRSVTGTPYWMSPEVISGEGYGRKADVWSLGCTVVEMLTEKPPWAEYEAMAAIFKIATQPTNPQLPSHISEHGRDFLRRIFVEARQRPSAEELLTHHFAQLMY
Protocol: as §1

[5] = biological target: T5, PKCbeta2 (Homo sapiens, UniProt P05771)
T5 construct: purchased ProQinase (Freiburg, Germany)
Protocol: as §1

[6] = biological target: T6, SIK2 (Homo sapiens, UniProt Q9H0K1)
T6 construct: purchased ProQinase (Freiburg, Germany)
Protocol: as §1

[7] = biological target: T7, TTBK2 (Homo sapiens, UniProt Q6IQ55)
T7 construct: purchased ProQinase (Freiburg, Germany)
Protocol: as §1

T1 sequence (P27037 20-513): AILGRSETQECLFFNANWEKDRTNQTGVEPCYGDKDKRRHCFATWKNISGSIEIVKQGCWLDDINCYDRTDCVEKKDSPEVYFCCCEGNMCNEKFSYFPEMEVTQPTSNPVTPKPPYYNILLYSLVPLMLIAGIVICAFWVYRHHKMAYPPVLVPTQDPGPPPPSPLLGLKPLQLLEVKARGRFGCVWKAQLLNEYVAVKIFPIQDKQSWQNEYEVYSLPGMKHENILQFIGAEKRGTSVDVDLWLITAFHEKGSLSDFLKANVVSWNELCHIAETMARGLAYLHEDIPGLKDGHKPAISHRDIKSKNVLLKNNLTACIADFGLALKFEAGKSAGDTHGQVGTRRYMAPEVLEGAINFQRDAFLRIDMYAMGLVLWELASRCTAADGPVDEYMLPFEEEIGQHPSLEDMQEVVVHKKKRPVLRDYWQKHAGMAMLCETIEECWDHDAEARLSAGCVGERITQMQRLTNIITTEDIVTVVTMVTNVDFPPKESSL
T7 sequence (Q6IQ55 whole entry): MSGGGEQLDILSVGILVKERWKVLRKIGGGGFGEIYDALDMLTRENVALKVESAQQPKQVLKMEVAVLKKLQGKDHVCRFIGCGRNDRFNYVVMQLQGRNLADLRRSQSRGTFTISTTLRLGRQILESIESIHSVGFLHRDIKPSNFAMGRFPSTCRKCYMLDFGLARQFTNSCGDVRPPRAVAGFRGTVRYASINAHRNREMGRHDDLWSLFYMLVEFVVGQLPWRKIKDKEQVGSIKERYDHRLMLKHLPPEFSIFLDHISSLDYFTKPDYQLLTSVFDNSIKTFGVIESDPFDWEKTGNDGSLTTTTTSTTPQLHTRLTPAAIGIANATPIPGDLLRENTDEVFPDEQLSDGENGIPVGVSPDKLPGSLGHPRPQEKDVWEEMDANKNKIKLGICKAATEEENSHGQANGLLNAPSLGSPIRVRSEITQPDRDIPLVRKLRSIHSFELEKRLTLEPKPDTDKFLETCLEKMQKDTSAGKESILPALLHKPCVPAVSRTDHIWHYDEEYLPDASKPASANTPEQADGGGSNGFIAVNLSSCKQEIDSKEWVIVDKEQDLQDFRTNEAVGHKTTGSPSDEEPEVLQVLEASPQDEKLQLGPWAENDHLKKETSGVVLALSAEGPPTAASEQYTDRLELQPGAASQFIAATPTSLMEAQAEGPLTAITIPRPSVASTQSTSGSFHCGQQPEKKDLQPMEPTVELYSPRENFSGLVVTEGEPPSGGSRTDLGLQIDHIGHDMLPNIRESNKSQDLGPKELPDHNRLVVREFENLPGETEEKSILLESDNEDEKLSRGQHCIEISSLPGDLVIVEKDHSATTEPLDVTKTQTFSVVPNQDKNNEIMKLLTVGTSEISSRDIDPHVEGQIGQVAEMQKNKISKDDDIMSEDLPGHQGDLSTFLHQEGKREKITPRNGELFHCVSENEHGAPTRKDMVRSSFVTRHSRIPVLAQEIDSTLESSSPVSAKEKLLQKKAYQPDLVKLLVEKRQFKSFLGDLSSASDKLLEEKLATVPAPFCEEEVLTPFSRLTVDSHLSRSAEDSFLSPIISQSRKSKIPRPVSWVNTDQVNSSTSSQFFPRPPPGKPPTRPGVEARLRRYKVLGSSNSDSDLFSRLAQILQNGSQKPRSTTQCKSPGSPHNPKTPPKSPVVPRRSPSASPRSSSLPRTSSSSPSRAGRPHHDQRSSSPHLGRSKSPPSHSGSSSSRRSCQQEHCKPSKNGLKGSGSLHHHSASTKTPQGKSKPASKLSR
T6 sequence (Q9H0K1 whole entry): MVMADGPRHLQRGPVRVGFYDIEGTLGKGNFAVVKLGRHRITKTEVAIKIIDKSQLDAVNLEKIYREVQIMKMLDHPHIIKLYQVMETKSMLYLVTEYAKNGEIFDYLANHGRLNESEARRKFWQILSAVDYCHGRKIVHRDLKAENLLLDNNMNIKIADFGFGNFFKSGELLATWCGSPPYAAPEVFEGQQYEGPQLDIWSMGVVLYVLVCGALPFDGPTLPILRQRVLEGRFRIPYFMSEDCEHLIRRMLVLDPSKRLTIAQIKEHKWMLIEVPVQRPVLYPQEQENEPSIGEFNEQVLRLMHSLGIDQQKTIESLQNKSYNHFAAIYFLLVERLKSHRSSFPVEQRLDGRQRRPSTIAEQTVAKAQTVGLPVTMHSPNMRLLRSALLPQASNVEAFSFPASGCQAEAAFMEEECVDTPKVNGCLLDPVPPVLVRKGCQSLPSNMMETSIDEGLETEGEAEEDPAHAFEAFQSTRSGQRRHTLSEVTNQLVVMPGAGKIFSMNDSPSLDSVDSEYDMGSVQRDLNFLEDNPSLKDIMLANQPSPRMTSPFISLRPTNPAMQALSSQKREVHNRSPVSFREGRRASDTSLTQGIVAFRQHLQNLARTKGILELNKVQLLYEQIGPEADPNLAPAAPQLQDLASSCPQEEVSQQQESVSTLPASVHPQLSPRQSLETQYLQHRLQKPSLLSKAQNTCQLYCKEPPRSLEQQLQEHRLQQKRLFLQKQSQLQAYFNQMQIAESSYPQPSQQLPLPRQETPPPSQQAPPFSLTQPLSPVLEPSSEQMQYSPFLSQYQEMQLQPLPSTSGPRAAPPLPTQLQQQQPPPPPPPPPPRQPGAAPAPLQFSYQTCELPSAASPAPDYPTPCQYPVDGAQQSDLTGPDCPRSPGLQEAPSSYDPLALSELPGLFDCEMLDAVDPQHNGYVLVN
T5 sequence (P05771 1-673 isoform P05771-2): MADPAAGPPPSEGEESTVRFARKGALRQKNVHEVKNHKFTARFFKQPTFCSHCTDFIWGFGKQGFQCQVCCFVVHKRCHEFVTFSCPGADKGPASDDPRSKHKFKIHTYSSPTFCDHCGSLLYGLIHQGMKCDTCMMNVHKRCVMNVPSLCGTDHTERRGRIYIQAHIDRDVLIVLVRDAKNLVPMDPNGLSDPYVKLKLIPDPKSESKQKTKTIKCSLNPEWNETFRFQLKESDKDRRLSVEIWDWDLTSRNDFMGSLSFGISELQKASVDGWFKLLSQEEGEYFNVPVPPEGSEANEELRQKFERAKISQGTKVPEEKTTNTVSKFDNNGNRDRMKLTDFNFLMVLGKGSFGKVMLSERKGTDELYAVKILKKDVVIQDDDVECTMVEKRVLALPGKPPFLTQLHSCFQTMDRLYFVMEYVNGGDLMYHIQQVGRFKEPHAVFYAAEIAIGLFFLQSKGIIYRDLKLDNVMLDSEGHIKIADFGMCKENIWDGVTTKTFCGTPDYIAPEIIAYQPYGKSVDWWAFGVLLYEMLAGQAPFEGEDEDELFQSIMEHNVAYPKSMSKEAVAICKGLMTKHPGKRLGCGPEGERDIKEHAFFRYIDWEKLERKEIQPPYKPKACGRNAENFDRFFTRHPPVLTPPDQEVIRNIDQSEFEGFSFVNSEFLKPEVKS

Row | Compound | Residual activity ([1]; 1.0E-05 M) | Residual activity ([1]; 1.0E-06 M) | Residual activity ([2]; 1.0E-05 M) | Residual activity ([2]; 1.0E-06 M) | Residual activity ([3]; 1.0E-05 M) | Residual activity ([3]; 1.0E-06 M) | Residual activity ([4]; 1.0E-05 M) | Residual activity ([4]; 1.0E-06 M) | Residual activity ([5]; 1.0E-05 M) | Residual activity ([5]; 1.0E-06 M) | Residual activity ([6]; 1.0E-05 M) | Residual activity ([6]; 1.0E-06 M) | Residual activity ([7]; 1.0E-05 M) | Residual activity ([7]; 1.0E-06 M)
1 | O=C(Nc1ccc(F)c(Nc2ccc3c(c2)CCCCC3=O)c1)c1cccc(F)c1 [Compound 109] | 108 % of control | 99 % of control | 103 % of control | 100 % of control | 138 % of control | 122 % of control | 102 % of control | 94 % of control | 90 % of control | 97 % of control | 82 % of control | 93 % of control | 113 % of control | 105 % of control
2 | O=C(Cc1ccccc1)Nc1ccc(F)c(Nc2ccc3c(c2)CCCCC3=O)c1 [Compound 100] | 95 % of control | 89 % of control | 89 % of control | 101 % of control | 144 % of control | 118 % of control | 104 % of control | 95 % of control | 84 % of control | 105 % of control | 81 % of control | 89 % of control | 126 % of control | 109 % of control
